Measurements published in patent US10316039B2, “P2X3 and/or P2X2/3 compounds and methods” (Asana Biosciences, LLC, priority 2013, dated 2019).

Key:
P2X3 = target: T1, P2X3 (UniProt P56373); assay: P2X3 FLIPR intracellular calcium assay; format: cell-based; conditions: agonist at EC75, species (human or rat) not given
T1 sequence (P56373 1-397): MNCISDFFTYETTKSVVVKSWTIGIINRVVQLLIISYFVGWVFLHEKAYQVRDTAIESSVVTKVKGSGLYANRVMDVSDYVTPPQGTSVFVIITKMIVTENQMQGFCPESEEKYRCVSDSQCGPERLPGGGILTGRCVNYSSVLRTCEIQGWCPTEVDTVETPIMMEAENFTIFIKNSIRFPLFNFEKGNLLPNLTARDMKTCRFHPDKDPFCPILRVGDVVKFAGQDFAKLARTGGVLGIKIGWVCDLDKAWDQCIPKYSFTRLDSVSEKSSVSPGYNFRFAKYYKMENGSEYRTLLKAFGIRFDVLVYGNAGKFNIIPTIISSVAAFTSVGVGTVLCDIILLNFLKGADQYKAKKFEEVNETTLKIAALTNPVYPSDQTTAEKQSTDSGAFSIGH
From the text: The FLIPR® assay utilizes cells which express human or rat P2X3 or P2X2/3 receptors. […] The PCR product obtained containing the protein coding sequence of rat P2X2 was cloned into EcoRV-digested and dephosphorylated vector pIRES-puro3 within the multiple cloning site (MCS). See, FIG. 1A.
Rat P2X3 (NCBI Accession No: X91167) was amplified by PCR from rat brain cDNA. The PCR product obtained containing the protein coding sequence of rat P2X3 was cloned into EcoRV-digested and dephosphorylated vector pCDNA-Hygro within the multiple cloning site (MCS) (FIG. 1B). Rat P2X3 cloned into pcDNA-Hygro was then subcloned into pcDNA-5/TO at HindIII (5′) and XhoI (3′) sites within the multiple cloning site (MCS) of the vector (FIG. 1C).
(§1) Transfection was carried out using super-coiled constructs (purified using QIAGEN kit) in antibiotic free, serum free DMEM using Lipofectamine® 2000 (Invitrogen) transfection agent. The DNA constructs rat P2X2 in pIRES-Puro3 and rat P2X3 in pCDNA5/TO were co-transfected into TRex293 cells in order to generate the rP2X2/3 stable line. 50 μg/mL hygromycin (Invitrogen) and 0.5 μg/mL puromycin (Fermentek) were used for selection of stable clones of rP2X2/3. Rat P2X3 in pCDNA5/TO DNA construct was transfected to CHO-TRex cells to generate the rP2×3 stable line and 500 μg/mL hygromycin (Invitrogen) was used as selection antibiotic. Transfected stable colonies were then functionally verified and robust clones suitable for assay were clonally purified through dilutions.
(§2) Cryo-vial containing 6×10^6 cells (human P2X3-HEK/human P2X2/3-TRex293/rat P2X2/3-TRex293/rat P2X3 TRex-CHO) was thawed in a 37° C. water bath. Cells were suspended in 20 mL of respective cell plating media (See annexure for composition) in a 50 mL centrifuge tube. The cell viability was checked with the help of Trypan Blue dye. Upon washing, cells were plated in a black 384-well clear bottomed, sterile poly-D-lysine coated plate such that, each well contained 10,000 cells (15,000/well for hP2X3) in 30 μL cell plating media. The plate was incubated in a 5% CO2 incubator at 37° C. for 24 h.
(§3) The next day, prior to the assay, the cell plating media was removed from each well by decanting and gentle tapping. Thirty μL of FLIPR Calcium 4 dye solution was added to each well. The plate was incubated at 37° C. for 45 min (60 min for hP2X3). The plate was next equilibrated at room temperature for 15 minutes before placing it in a 384 well FLIPR for the assay.
Dilutions were mixed with assay buffer just before performing the assay.
(§4) Compounds were added to the respective wells of the assay-ready cell plate with the help of the FLIPR and fluorescence readings were captured for 5 min to observe any possible agonistic property of the compounds. The plate was then incubated at room temperature for 15 min. The cells were stimulated with respective agonist EC75 concentration and the fluorescence readings were captured for another 5 min by FLIPR. The difference in fluorescence readings in presence of the compounds were compared with that of the control wells (wells having no compound) to calculate the inhibitory potency of the compounds. The IC50 values of the compounds were determined using the Graph pad Prism software.
(vi) Dye Solution Composition • 1×FLIPR Calcium 4 dye in assay buffer (Molecular devices Cat# R8141) • 1.8 mM Probenecid (Sigma Cat# P8761) • pH adjusted to 7.4

P2X2/3 = target: T2, P2X2/3 (Homo sapiens, UniProt P56373+Q9UBL9); assay: P2X2/3 FLIPR intracellular calcium assay; format: cell-based; conditions: agonist at EC75, species (human or rat) not given
T2 sequence (Q9UBL9 1-471): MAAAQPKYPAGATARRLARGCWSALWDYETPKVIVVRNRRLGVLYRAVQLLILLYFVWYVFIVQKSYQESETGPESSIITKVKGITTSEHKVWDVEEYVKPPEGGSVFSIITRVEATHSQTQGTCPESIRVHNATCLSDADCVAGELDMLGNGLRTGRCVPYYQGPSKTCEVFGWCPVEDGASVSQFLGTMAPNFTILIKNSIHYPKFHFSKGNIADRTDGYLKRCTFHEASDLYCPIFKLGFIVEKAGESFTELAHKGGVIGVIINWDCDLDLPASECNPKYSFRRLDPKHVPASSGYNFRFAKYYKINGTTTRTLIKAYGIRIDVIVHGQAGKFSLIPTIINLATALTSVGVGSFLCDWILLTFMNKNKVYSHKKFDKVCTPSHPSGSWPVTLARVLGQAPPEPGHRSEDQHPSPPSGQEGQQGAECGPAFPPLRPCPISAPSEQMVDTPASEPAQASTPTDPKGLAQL
T2 sequence (P56373 1-397): T1 sequence (P56373 1-397)
From the text: The FLIPR® assay utilizes cells which express human or rat P2X3 or P2X2/3 receptors. Recombinant cells expressing hP2X3 (Cat#6188) and hP2X2/3 (Cat#6179) were procured from Chantest Corp. Rat P2X2 (NCBI Accession No: U14414) was amplified by PCR from PC12 cDNA (a rat adrenal medulla cell line). The PCR product obtained containing the protein coding sequence of rat P2X2 was cloned into EcoRV-digested and dephosphorylated vector pIRES-puro3 within the multiple cloning site (MCS). See, FIG. 1A.
as §1, §2, §3
Compounds were dissolved in DMSO and serially diluted following 11 point half log (3.16 fold) dilution with a starting concentration of 2 mM. Dilutions were mixed with assay buffer just before performing the assay.
as §4
(ii) Cell Plating Media for hP2X3-HEK and hP2X2/3-TRex293 Cells • DMEM/F12 (1:1) HAM media (Invitrogen; Cat#11039) • 1×NEAA (Invitrogen; Cat#11140) • 25 mM HEPES (Invitrogen; Cat#15630) • 1 mM sodium pyruvate (Invitrogen; Cat#11360) • 10% tetracycline negative FBS (PAA; Cat# A15-209) • 1 μg/mL doxycycline (Clontech; Cat#63131) [for hP2X2/3-TRex293 cells only]
(iii) Cell Plating Media for rP2X2/3-TRex293 Cells • DMEM media (Invitrogen; Cat#11965) • 25 mM HEPES (Invitrogen; Cat#15630) • 10% tetracycline negative FBS (PAA; Cat# A15-209) • 1 μg/mL Doxycycline (Clontech; Cat#63131)
(v) Assay Buffer Composition • HBSS (Invitrogen Cat#14025) • 20 mM HEPES (Invitrogen Cat#15630) • 0.01% F127 (Sigma Cat# P2443) • 1.8 mM CaCl2 (Sigma Cat# C5080) • pH adjusted to 7.4 […]

Compound	IC50 (P2X3) [nM]	IC50 (P2X2/3) [nM]
Cc1ccc(CNC(=O)c2cc(-n3nncc3C(F)F)c3ncc(-c4ncc(C)s4)n3c2)cn1 [Example 36]	1 to 100	1 to 100
Cc1ccccc1-c1cnc2c(N3CCC(C)CC3)cc(C(=O)NCc3ccc(C)[n+]([O-])c3)cn12 [Example 150]	1 to 100	100 to 1000
Cc1ccc(CNC(=O)c2cc(-n3nncc3C3CC3)c3ncc(-c4ccc(C)s4)n3c2)cn1 [Example 25]	1 to 100	1 to 100
Cc1ncc(CNC(=O)c2cc(-n3nncc3C3CCC3)c3ncc(-c4ncc(C)s4)n3c2)cn1 [Example 55]	> 10000	100 to 1000
CCCc1cnnn1-c1cc(C(=O)NCc2cnc(C)nc2)cn2c(-c3ncc(C)s3)cnc12 [Example 64]	1 to 100	100 to 1000
Cc1ccc(CNC(=O)c2cc(Nc3ccccc3)c3ncc(-c4ccc(C)s4)n3c2)cn1 [Example 91]	100 to 1000	1000 to 10000
CCCc1nnnn1-c1cc(C(=O)NCc2ccc(C)nc2)cn2c(-c3ccc(C)s3)cnc12 [Example 158]	> 10000	1 to 100
Cc1ncc(CNC(=O)c2cc(-n3nnnc3C(F)F)c3ncc(-c4ccc(Cl)s4)n3c2)cn1 [Example 176]	100 to 1000	100 to 1000
Cc1ccc(CNC(=O)c2cc(-n3nncc3C(F)F)c3ncc(-c4ccc(C)o4)n3c2)cn1 [Example 48]	1 to 100	1 to 100
Cc1ncc(CNC(=O)c2cc(-n3nncc3C(F)(F)F)c3ncc(-c4ccc(C)s4)n3c2)cn1 [Example 39]	1 to 100	1 to 100
Cc1ncc(CNC(=O)c2cc(-n3nncc3CC(F)(F)F)c3ncc(-c4ccc(C)s4)n3c2)cn1 [Example 80]	1 to 100	1 to 100
Cc1ccc(CNC(=O)c2cc(-n3nncc3C(C)(F)F)c3ncc(-c4ncc(C)s4)n3c2)cn1 [Example 87]	100 to 1000	100 to 1000
CC[C@H](NC(=O)c1cc(-n2nncc2C(C)C)c2ncc(-c3ccc(Cl)s3)n2c1)c1nnc[nH]1 [Example 69]	1 to 100	100 to 1000
Cc1ccc(CNC(=O)c2cc(-n3nncc3C(F)F)c3ncc(-c4ccc(C)s4)n3c2)cn1 [Example 27]	1 to 100	
COc1ccc(CNC(=O)c2cc(-n3nnnc3C3CCC3)c3ncc(-c4ccc(C)s4)n3c2)cc1 [Example 163]	> 10000	

Second part, the compound after the results:

IC50 (P2X3) [nM]	IC50 (P2X2/3) [nM]	Compound
1 to 100	1 to 100	C[C@H](NC(=O)c1cc(-n2nnnc2C(F)F)c2ncc(-c3ccc(Cl)s3)n2c1)c1nnc[nH]1 [Example 170]
100 to 1000	1000 to 10000	Cc1ccccc1-c1cnc2c(N3CCC(C)CC3)cc(C(=O)N[C@@H](C)c3nnc[nH]3)cn12 [Example 15, (S)—N-(1-(4H-1,2,4-Triazol-3-yl)ethyl)-8-(4-methylpiperidin-1-yl)-3-(o-tolyl)imidazo[1,2-a]pyridine-6-carboxamide]
1 to 100	100 to 1000	Cc1ccc(-c2cnc3c(Nc4ccccc4)cc(C(=O)N[C@@H](C)c4nnc[nH]4)cn23)s1 [Example 7, (S)—N-(1-(4H-1,2,4-Triazol-3-yl)ethyl)-3-(5-methylthiophen-2-yl)-8-(phenylamino)imidazo[1,2-a]pyridine-6-carboxamide]
1 to 100	100 to 1000	Cc1ccc(-c2cnc3c(N4CCC(C)CC4)cc(C(=O)N[C@@H](C)c4nnc[nH]4)cn23)s1 [Example 11, (S)—N-(1-(4H-1,2,4-Triazol-3-yl)ethyl)-8-(4-methylpiperidin-1-yl)-3-(5-methylthiophen-2-yl)imidazo[1,2-a]pyridine-6-carboxamide]
1 to 100	1 to 100	CCCc1cnnn1-c1cc(C(=O)N[C@@H](C)c2nnc[nH]2)cn2c(-c3ccc(C)s3)cnc12 [Example 63]
100 to 1000	100 to 1000	CC1CCN(c2cc(C(=O)N[C@@H](C)c3nnc[nH]3)cn3c(-c4ccc(Cl)s4)cnc23)CC1 [Example 118]
1000 to 10000	100 to 1000	Cc1ccc(-c2cnc3c(N4CCC(F)(F)CC4)cc(C(=O)N[C@H](c4nnc[nH]4)C(C)C)cn23)s1 [Example 145]
1 to 100	1 to 100	C[C@H](NC(=O)c1cc(-n2nncc2C(C)(F)F)c2ncc(-c3ccc(Cl)s3)n2c1)c1nnc[nH]1 [Example 76]
1000 to 10000	100 to 1000	Cc1ccc(CNC(=O)c2cc(N3CCC(C)CC3)c3ncc(-c4ccc(C)s4)n3c2)cn1 [Example 115]
1 to 100	1 to 100	COc1ncc(CNC(=O)c2cc(-n3nncc3C(F)F)c3ncc(-c4ccc(C)s4)n3c2)cn1 [Example 35]
1 to 100	1 to 100	Cc1ccc(-c2cnc3c(-n4nncc4CC(F)(F)F)cc(C(=O)N[C@@H](C)c4nnc[nH]4)cn23)s1 [Example 81]
1 to 100	> 10000	Cc1ccc(-c2cnc3c(Nc4ccc(F)cc4)cc(C(=O)N[C@@H](C)c4nnc[nH]4)cn23)s1 [Example 95]
1 to 100	1 to 100	CCc1cnnn1-c1cc(C(=O)N[C@@H](CC)c2nnc[nH]2)cn2c(-c3ccc(C)s3)cnc12 [Example 58]
1000 to 10000		Cc1ccc(-c2cnc3c(N4CCC(F)(F)CC4)cc(C(=O)N[C@@H](C)c4cc[nH]n4)cn23)s1 [Example 143]
